Experimental data: patent US20250230193A1, “CYCLIC COMPOUND HAVING SELECTIVE KRAS INHIBITORY EFFECT ON HRAS AND NRAS” (CHUGAI SEIYAKU KABUSHIKI KAISHA, priority 2022, published 2025)

Columns and labels:
[1] = target: GDP-bound HRAS wild-type protein (Homo sapiens, UniProt P01112); assay: Binding to HRAS by surface plasmon resonance (SPR), Single Cycle Kinetics; settings: for HRAS/KRAS (ratio of KD value for HRAS to KD value for KRAS) / HRAS/KRAS (ratio of KD value with respect to HRAS to KD value with respect to KRAS): GDP-bound HRAS wild-type vs GDP-bound KRAS wild-type
[2] = target: GDP-bound NRAS wild-type protein (Homo sapiens, UniProt P01111); assay: Binding to NRAS by surface plasmon resonance (SPR), Single Cycle Kinetics; settings: for NRAS/KRAS (ratio of KD value for NRAS to KD value for KRAS) / NRAS/KRAS (ratio of KD value with respect to NRAS to KD value with respect to KRAS): GDP-bound NRAS wild-type vs GDP-bound KRAS wild-type
Sequence of GDP-bound NRAS wild-type protein (P01111 whole entry): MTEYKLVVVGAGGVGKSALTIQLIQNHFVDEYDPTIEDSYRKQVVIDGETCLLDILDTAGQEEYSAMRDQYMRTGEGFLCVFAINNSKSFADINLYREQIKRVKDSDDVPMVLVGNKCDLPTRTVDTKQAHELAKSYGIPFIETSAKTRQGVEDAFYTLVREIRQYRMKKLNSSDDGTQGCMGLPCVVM

Sequence of GDP-bound HRAS wild-type protein (P01112 whole entry): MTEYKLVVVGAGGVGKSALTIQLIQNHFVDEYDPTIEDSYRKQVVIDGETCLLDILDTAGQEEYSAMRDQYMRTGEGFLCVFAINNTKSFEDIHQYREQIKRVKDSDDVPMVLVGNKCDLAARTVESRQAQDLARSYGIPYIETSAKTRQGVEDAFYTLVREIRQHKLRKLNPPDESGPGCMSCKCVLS

With CCO[C@@H]1C[C@H]2C(=O)NC3(CC(F)(F)C3)C(=O)N(C)[C@@H](C3CCCC3)C(=O)N(C)[C@H](CC)CC(=O)N(C)[C@@H](CC3CC3)C(=O)N[C@@H]([C@@H](C)CC)C(=O)N(C)CC(=O)N(C)[C@H]3C/C=C\CCN(C3=O)[C@@H](Cc3ccc(C(F)(F)F)cc3)C(=O)N(C)CC(=O)N[C@@H](CCc3cc(F)c(C(F)(F)F)c(F)c3)C(=O)N2C1 [PP1633] the “HRAS/KRAS (ratio of KD value for HRAS to KD value for KRAS)” value ([1]; SPR) was “B (a compound having 3 or more and less than 10 is denoted as B)” and the “NRAS/KRAS (ratio of KD value for NRAS to KD value for KRAS)” value ([2]; SPR) was “A (a compound having 10 or more and less than 20 is denoted as A)”.
CC[C@H](C)[C@@H]1NC(=O)[C@H](CC(C)C)N(C)C(=O)C[C@@H](C(=O)N(C)C)N(C)C(=O)[C@H](C2CCCC2)N(C)C(=O)C2(CCC2)NC(=O)[C@@H]2C[C@@H](C)CN2C(=O)[C@H](CCc2ccc(C(F)(F)F)c(OC)c2)NC(=O)CN(C)C(=O)[C@H](Cc2ccc(C)cc2)N2CC/C=C\C[C@@H](C2=O)N(C)C(=O)CN(C)C1=O [PP1867] was tested, and the “HRAS/KRAS (ratio of KD value for HRAS to KD value for KRAS)” value ([1]; SPR) was “B (a compound having 3 or more and less than 10 is denoted as B)” and the “NRAS/KRAS (ratio of KD value for NRAS to KD value for KRAS)” value ([2]; SPR) was “A (a compound having 10 or more and less than 20 is denoted as A)”.
With CCO[C@@H]1C[C@H]2C(=O)NC3(CC(C)(C)C3)C(=O)N(C)[C@@H](C(CC)CC)C(=O)N(C)[C@H](C(=O)N(C)C)CC(=O)N(C)[C@@H](C(C)C)C(=O)N[C@@H]([C@@H](C)CC)C(=O)N(C)CC(=O)N(C)[C@H]3C/C=C\CCN(C3=O)[C@@H](Cc3ccc(C)cc3)C(=O)N(C)CC(=O)N[C@@H](CCc3cc(F)c(C(F)(F)F)c(F)c3)C(=O)N2C1 [PP2153] the “HRAS/KRAS (ratio of KD value with respect to HRAS to KD value with respect to KRAS)” value ([1]; SPR) was “A (a compound having 10 or more and less than 20 is denoted as A)” and the “NRAS/KRAS (ratio of KD value with respect to NRAS to KD value with respect to KRAS)” value ([2]; SPR) was “A (a compound having 10 or more and less than 20 is denoted as A)”.
In the case of CCO[C@@H]1C[C@H]2C(=O)NC3(CC(C)(C)C3)C(=O)N(C)[C@@H](C3CCCC3)C(=O)N(C)[C@H](C(=O)N(C)CC)CC(=O)N(C)[C@@H](C3CC3)C(=O)N[C@@H]([C@@H](C)CC)C(=O)N(C)CC(=O)N(C)[C@H]3C/C=C\CCN(C3=O)[C@@H](Cc3ccc(C(F)(F)F)cc3)C(=O)N(C)CC(=O)N[C@@H](CCc3cc(F)c(C(F)(F)F)c(F)c3)C(=O)N2C1 [PP2036], the “HRAS/KRAS (ratio of KD value with respect to HRAS to KD value with respect to KRAS)” value ([1]; SPR) is reported as “A (a compound having 10 or more and less than 20 is denoted as A)” and the “NRAS/KRAS (ratio of KD value with respect to NRAS to KD value with respect to KRAS)” value ([2]; SPR) is reported as “A (a compound having 10 or more and less than 20 is denoted as A)”.
With CC[C@H](C)[C@@H]1NC(=O)[C@H](CC(C)C)N(C)C(=O)C[C@@H](C(=O)N2CCOCC2)N(C)C(=O)[C@H](C2CCCC2)N(C)C(=O)C(C)(C)NC(=O)[C@@H]2CCCN2C(=O)[C@H](CCc2cc(F)c(C(F)(F)F)c(F)c2)NC(=O)CN(C)C(=O)[C@H](Cc2ccc(C(F)(F)F)cc2)N2CCCCC[C@@H](C2=O)N(C)C(=O)CN(C)C1=O [PP0503] the “HRAS/KRAS (ratio of KD value with respect to GDP-bound HRAS wild-type protein to KD value with respect to KRAS)” value ([1]; SPR) was “B (a compound having 3 or more and less than 10 is denoted as B)” and the “NRAS/KRAS (ratio of KD value with respect to GDP-bound NRAS wild-type protein to KD value with respect to KRAS)” value ([2]; SPR) was “A (a compound having 10 or more and less than 20 is denoted as A)”.
In the case of CCC[C@H]1C(=O)N[C@@H]([C@@H](C)CC)C(=O)N(C)CC(=O)N(C)[C@H]2C/C=C\CCN(C2=O)[C@@H](Cc2ccc(C(F)(F)F)cc2)C(=O)N(C)CC(=O)N[C@@H](CCc2cc(F)c(C(F)(F)F)c(F)c2)C(=O)N(CC)CC(=O)NC2(CC(C)(C)C2)C(=O)N(C)[C@@H](C2CCCC2)C(=O)N(C)[C@H](C(=O)N(C)C)CC(=O)N1C [PP1777], the “HRAS/KRAS (ratio of KD value for HRAS to KD value for KRAS)” value ([1]; SPR) is reported as “B (a compound having 3 or more and less than 10 is denoted as B)” and the “NRAS/KRAS (ratio of KD value for NRAS to KD value for KRAS)” value ([2]; SPR) is reported as “A (a compound having 10 or more and less than 20 is denoted as A)”.
With CCOC[C@H]1C(=O)N[C@@H]([C@@H](C)CC)C(=O)N(C2CC2)CC(=O)N(C)[C@@H]2C/C=C\CCN(C2=O)[C@@H](Cc2ccc(C)cc2)C(=O)N(C)CC(=O)N[C@@H](CCc2ccc(C(F)(F)F)c(OC)c2)C(=O)N2C[C@H](OCC)C[C@@H]2C(=O)NC2(CC(C)(C)C2)C(=O)N(C)[C@H](CC2CCC2)C(=O)N(C)[C@H](C(=O)N(C)C)CC(=O)N1C (stereo in doubt) [PP2760] the “HRAS/KRAS (ratio of KD value with respect to GDP-bound HRAS wild-type protein to KD value with respect to KRAS)” value ([1]; class symbols) was “B (a compound having 3 or more and less than 10 is denoted as B)” and the “NRAS/KRAS (ratio of KD value with respect to GDP-bound NRAS wild-type protein to KD value with respect to KRAS)” value ([2]; class symbols) was “A (a compound having 10 or more and less than 20 is denoted as A)”.
